target: Kv1.3 potassium channel (Homo sapiens, UniProt P22001); experiment: Whole-cell patch-clamp assay for inhibitory activity against Kv1.3 (peak current); format: cell-based; conditions: HEK293 cells stably expressing Kv1.3, patch-clamp
Text: The voltage stimulation protocol for recording whole-cell Kv1.X potassium currents via patch-clamp was as follows. After formation of a whole-cell seal, the cell membrane voltage was clamped at −80 mV, and then stepped to +40 mV for 500 ms. […] The test data were acquired by EPC-10 amplifier (HEKA) and stored in the PatchMaster (HEKA) software. Recording electrodes were drawn from capillary glass tubes using a microelectrode puller. Under an inverted microscope, the recording electrode was brought into contact with the cell surface by manipulating a microelectrode manipulator. Negative-pressure suction was applied to form a GΩ seal. After formation of the […], a rapid capacitance compensation was given. The application of negative pressure was continued to rupture the cell membrane, forming a whole-cell recording mode. Then, a slow capacitance compensation was given, and the membrane capacitance and series resistance were recorded. No current leakage compensation was provided. Once the whole-cell recorded Kv1.X current stabilized, drug administration was started. Each drug concentration was allowed to act for 5 min (or until the current reached a steady state) before the next concentration was tested. Multiple concentrations were tested for each test compound. The cover glass plated with the cells was placed in a recording bath of the inverted microscope. The test compound and the compound-free extracellular fluid were allowed to sequentially flow through the recording bath from low concentrations to high concentrations using a gravity perfusion method, thus acting on the cells, and liquid exchange was performed using a vacuum pump during recording. For each cell, the current detected in the compound-free extracellular liquid was used as its own control group. The test was independently repeated three times using at least three cells per concentration. All electrophysiological experiments were performed at room temperature. […] First, the peak current after the action of each drug concentration and the peak current of the blank control were standardized and then the inhibition rate corresponding to each drug concentration was calculated Subsequently, the mean, standard deviation (SD), and standard error (SE) were calculated for the inhibition rate corresponding to each concentration. Using the above equation, the IC50 value for each compound was calculated, and the dose-dependent effect was subjected to non-linear fitting, where IC50 is the half maximal inhibitory concentration. The IC50 calculation and the curve fitting were performed using the GraphPad Prism software.

Kv1.3 potassium channel, sequence (P22001 whole entry): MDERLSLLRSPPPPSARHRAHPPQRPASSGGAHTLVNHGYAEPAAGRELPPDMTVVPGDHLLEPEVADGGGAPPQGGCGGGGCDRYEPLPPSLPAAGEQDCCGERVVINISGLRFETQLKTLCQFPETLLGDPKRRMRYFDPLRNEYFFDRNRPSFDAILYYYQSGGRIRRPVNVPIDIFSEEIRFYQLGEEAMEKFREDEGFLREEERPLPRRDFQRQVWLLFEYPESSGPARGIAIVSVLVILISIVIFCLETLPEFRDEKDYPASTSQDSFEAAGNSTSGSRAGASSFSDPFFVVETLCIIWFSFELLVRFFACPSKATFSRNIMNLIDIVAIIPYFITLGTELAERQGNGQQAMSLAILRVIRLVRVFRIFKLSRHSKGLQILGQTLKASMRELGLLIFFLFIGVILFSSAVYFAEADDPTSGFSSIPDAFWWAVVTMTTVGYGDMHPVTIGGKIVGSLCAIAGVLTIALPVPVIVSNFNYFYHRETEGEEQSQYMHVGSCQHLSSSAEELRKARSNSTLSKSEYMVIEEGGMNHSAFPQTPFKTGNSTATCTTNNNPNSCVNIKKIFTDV

Q: For `Cn1ccc(-c2nnc3n2C[C@H](c2c(O)ccc(Cl)c2Cl)C3)cc1=O` [Example 39, (S)-4-(6-(2,3-Dichloro-6-hydroxyphenyl)-6,7-dihydro-5H-pyrrolo[2,1-c][1,2,4]triazol-3-yl)-1-methylpyidin-2(1H)-one], which IC50 is on record?
A: The IC50 was 0.0521 µM.

Q: With `Cn1cc(-c2nnc3n2C[C@H](c2c(O)ccc(Cl)c2Cl)C3)cn1` [Example 40, (S)-3,4-Dichloro-2-(3-(1-methyl-1H-pyrazol-4-yl)-6,7-dihydro-5H-pyrrolo[2,1-c][1,2,4]triazol-6-yl)phenol] as the compound, how does the IC50 read?
A: The IC50 was 0.0106 µM.

Q: Which IC50 does the source give for `Oc1ccc(Cl)c(Cl)c1[C@@H]1Cc2nnc(-c3cccc4[nH]ncc34)n2C1` [Example 41, (S)-2-(3-(1H-Indazol-4-yl)-6,7-dihydro-5H-pyrrolo[2,1-c][1,2,4]triazol-6-yl)-3,4-dichlorophenol] here?
A: Its IC50 is 0.0238 µM.

Q: With `Nc1ccc(-c2nnc3n2C[C@H](c2c(O)ccc(Cl)c2Cl)C3)cn1` [Example 42, (S)-2-(3-(6-Aminopyridin-3-yl)-6,7-dihydro-5H-pyrrolo[2,1-c][1,2,4]triazol-6-yl)-3,4-dichlorophenol] as the compound, how does the IC50 read?
A: The IC50 was 0.013 µM.

Q: For `Nc1cc(-c2nnc3n2C[C@H](c2c(O)ccc(Cl)c2Cl)C3)ccn1` [Example 43, (S)-2-(3-(2-Aminopyridin-4-yl)-6,7-dihydro-5H-pyrrolo[2,1-c][1,2,4]triazol-6-yl)-3,4-dichlorophenol], which IC50 is on record?
A: The IC50 was 0.0197 µM.

Q: Which IC50 does the source give for `OCCn1cc(-c2nnc3n2C[C@H](c2c(O)ccc(Cl)c2Cl)C3)cn1` [Example 44, (S)-3,4-Dichloro-2-(3-(1-(2-hydroxyethyl)-1H-pyrazol-4-yl)-6,7-dihydro-5H-pyrrolo[2,1-c][1,2,4]triazol-6-yl)phenol] here?
A: Its IC50 is 0.00811 µM.

Q: Which IC50 does the source give for `Oc1ccc(Cl)c(Cl)c1[C@@H]1Cc2nnc(C3CNC3)n2C1` [Example 45, (S)-2-(3-(Azetidin-3-yl)-6,7-dihydro-5H-pyrrolo[2,1-c][1,2,4]triazol-6-yl)-3,4-dichlorophenol] here?
A: The IC50 was 0.0015 µM.

Q: `Oc1ccc(Cl)c(Cl)c1[C@@H]1Cc2nnc(-c3cn[nH]c3)n2C1` [Example 46, (S)-2-(3-(1H-Pyrazol-4-yl)-6,7-dihydro-5H-pyrrolo[2,1-c][1,2,4]triazol-6-yl)-3,4-dichlorophenol] was tested. Which IC50 did it give?
A: Its IC50 is 0.00512 µM.

Q: For `Oc1ccc(Cl)c(Cl)c1[C@@H]1Cc2nnc([C@H]3CCNC3)n2C1` [Example 47, 3,4-Dichloro-2-((S)-3-((S)-pyrrolidin-3-yl)-6,7-dihydro-5H-pyrrolo[2,1-c][1,2,4]triazol-6-yl)phenol], which IC50 is on record?
A: The IC50 was 0.0013 µM.

Q: For `Oc1ccc(Cl)c(Cl)c1[C@@H]1Cc2nnc([C@@H]3CCNC3)n2C1` [Example 48, 3,4-dichloro-2-((S)-3-((R)-pyrrolidin-3-yl)-6,7-dihydro-5H-pyrrolo[2,1-c][1,2,4]triazol-6-yl)phenol], which IC50 is on record?
A: Its IC50 is 0.00849 µM.

Q: With `CN1CCC(c2nnc3n2C[C@H](c2c(O)ccc(Cl)c2Cl)C3)C1` (stereo partly drawn) [Example 49, 3,4-Dichloro-2-((6S)-3-(1-methylpyrrolidin-3-yl)-6,7-dihydro-5H-pyrrolo[2,1-c][1,2,4]triazol-6-yl)phenol] as the compound, how does the IC50 read?
A: Its IC50 is 0.00364 µM.

Q: With `COC(=O)N1CC[C@@H](c2nnc3n2C[C@H](c2c(O)ccc(Cl)c2Cl)C3)C1` [Example 51, methyl (R)-3-((S)-6-(2,3-dichloro-6-hydroxyphenyl)-6,7-dihydro-5H-pyrrolo[2,1-c][1,2,4]triazol-3-yl)pyrrolidine-1-carboxylate] as the compound, how does the IC50 read?
A: The IC50 was 0.00724 µM.

Q: Which IC50 does the source give for `O=C1C[C@@H](c2nnc3n2C[C@H](c2c(O)ccc(Cl)c2Cl)C3)CN1` [Example 52, (R)-4-((S)-6-(2.3-Dichloro-6-hydroxyphenyl)-6,7-dihydro-5H-pyrrolo[2,1-c][1,2,4]triazol-3-yl)pyrrolidin-2-one] here?
A: The IC50 was 0.014 µM.

Q: For `Oc1ccc(Cl)c(Cl)c1[C@@H]1Cc2nnc([C@H]3CCOC3)n2C1` [Example 55, 3,4-dichloro-2-((S)-3-((R)-tetrahydrofuran-3-yl)-6,7-dihydro-5H-pyrrolo[2,1-c][1,2,4]triazol-6-yl)phenol], which IC50 is on record?
A: Its IC50 is 0.012 µM.

Q: Which IC50 does the source give for `Oc1ccc(Cl)c(Cl)c1[C@@H]1Cc2nnc([C@@H]3CCCNC3)n2C1` [Example 59, 3,4-dichloro-2-((S)-3-((R)-piperidin-3-yl)-6,7-dihydro-5H-pyrrolo[2,1-c][1,2,4]triazol-6-yl)phenol] here?
A: Its IC50 is 0.00256 µM.

Q: For `Oc1ccc(Cl)c(Cl)c1[C@@H]1Cc2nnc([C@H]3C[C@H]4CC[C@@H]3O4)n2C1` [Example 60, 2-((S)-3-((1S,2R,4R)-7-Oxabicyclo[2.2.1]heptan-2-yl)-6,7-dihydro-5H-pyrrolo[2,1-c][1,2,4]triazol-6-yl)-3,4-dichlorophenol], which IC50 is on record?
A: The IC50 was 0.0276 µM.

Q: Which IC50 does the source give for `Oc1ccc(Cl)c(Cl)c1[C@@H]1Cc2nnc([C@H]3C[C@@H]4CC[C@H]3O4)n2C1` [Example 62, 2-((S)-3-((1R,2R,4S)-7-Oxabicyclo[2.2.1]heptan-2-yl)-6,7-dihydro-5H-pyrrolo[2,1-c][1,2,4]triazol-6-yl)-3,4-dichlorophenol] here?
A: The IC50 was 0.0164 µM.

Q: `C[C@]1(c2nnc3n2C[C@H](c2c(O)ccc(Cl)c2Cl)C3)CCOC1` [Example 65, 3,4-dichloro-2-((S)-3-((R)-3-methyltetrahydrofuran-3-yl)-6,7-dihydro-5H-pyrrolo[2,1-c][1,2,4]triazol-6-yl)phenol] was tested. Which IC50 did it give?
A: The IC50 was 0.0517 µM.

Q: How did the IC50 turn out when `Oc1ccc(Cl)c(Cl)c1[C@@H]1Cc2nnc(C34COC(C3)C4)n2C1` [Example 66, (S)-2-(3-(2-Oxabicyclo[2.1.1]hexan-4-yl)-6,7-dihydro-5H-pyrrolo[2,1-c][1,2,4]triazol-6-yl)-3,4-dichlorophenol] was run?
A: Its IC50 is 0.0333 µM.

Q: With `Oc1ccc(Cl)c(Cl)c1[C@@H]1Cc2nnc(C3CCCC3)n2C1` [Example 67, (S)-3,4-Dichloro-2-(3-cyclopentyl-6,7-dihydro-5H-pyrrolo[2,1-c][1,2,4]triazol-6-yl)phenol] as the compound, how does the IC50 read?
A: The IC50 was 0.0102 µM.

Q: With `Oc1ccc(Cl)c(Cl)c1[C@@H]1Cc2nnc([C@@H]3CCCOC3)n2C1` [Example 68, 3,4-Dichloro-2-((S)-3-((S)-tetrahydro-2H-pyran-3-yl)-6,7-dihydro-5H-pyrrolo[2,1-c][1,2,4]triazol-6-yl)phenol] as the compound, how does the IC50 read?
A: Its IC50 is 0.016 µM.

Q: Which IC50 does the source give for `Oc1ccc(Cl)c(Cl)c1[C@@H]1Cc2nnc([C@@]34COCC3C4)n2C1` (stereo partly drawn) [Example 72, 2-((6S)-3-((1S)-3-Oxabicyclo[3.1.0]hexan-1-yl)-6,7-dihydro-5H-pyrrolo[2,1-c][1,2,4]triazol-6-yl)-3,4-dichlorophenol] here?
A: Its IC50 is 0.0391 µM.

Q: With `Oc1ccc(Cl)c(Cl)c1[C@@H]1Cc2nnc([C@]34COCC3C4)n2C1` (stereo partly drawn) [Example 73, 2-((6S)-3-((1R)-3-oxabicyclo[3.1.0]hexan-1-yl)-6,7-dihydro-5H-pyrrolo[2,1-c][1,2,4]triazol-6-yl)-3,4-dichlorophenol] as the compound, how does the IC50 read?
A: Its IC50 is 0.0247 µM.

Q: With `COc1cccc(-c2nnc3n2C[C@H](c2c(O)ccc(Cl)c2Cl)C3)c1` [Example 76, (S)-3,4-Dichloro-2-(3-(3-methoxyphenyl)-6,7-dihydro-5H-pyrrolo[2,1-c][1,2,4]triazol-6-yl)phenol] as the compound, how does the IC50 read?
A: Its IC50 is 0.0279 µM.

Q: For `COc1cccc(-c2nnc3n2C[C@@H](c2c(O)ccc(Cl)c2Cl)C3)c1` [Example 77, (R)-3,4-dichloro-2-(3-(3-methoxyphenyl)-6,7-dihydro-5H-pyrrolo[2,1-c][1,2,4]triazol-6-yl)phenol], which IC50 is on record?
A: The IC50 was 0.0452 µM.

Q: How did the IC50 turn out when `Oc1ccc(Cl)c(Cl)c1[C@@H]1Cc2nnc(C3CCN(C4CCCCC4)CC3)n2C1` [Example 78, (S)-3,4-Dichloro-2-(3-(1-cyclohexylpiperidin-4-yl)-6,7-dihydro-5H-pyrrolo[2,1-c][1,2,4]triazol-6-yl)phenol] was run?
A: Its IC50 is 0.0126 µM.

Q: `CC(C)N1CC[C@@H](c2nnc3n2C[C@H](c2c(O)ccc(Cl)c2Cl)C3)C1` [Example 80, 3,4-Dichloro-2-((S)-3-((R)-1-isopropylpyrrolidin-3-yl)-6,7-dihydro-5H-pyrrolo[2,1-c][1,2,4]triazol-6-yl)phenol] was tested. Which IC50 did it give?
A: Its IC50 is 0.00214 µM.

Q: With `CC(=O)N1CC[C@@H](c2nnc3n2C[C@H](c2c(O)ccc(Cl)c2Cl)C3)C1` [Example 81, 1-((R)-3-((S)-6-(2,3-Dichloro-6-hydroxyphenyl)-6,7-dihydro-5H-pyrrolo[2,1-c][1,2,4]triazol-3-yl)pyrrolidin-1-yl)ethan-1-one] as the compound, how does the IC50 read?
A: The IC50 was 0.0113 µM.

Q: For `CC(C)N1CCC(N2CC[C@@H](c3nnc4n3C[C@H](c3c(O)ccc(Cl)c3Cl)C4)C2)CC1` [Example 82, 3,4-Dichloro-2-((S)-3-((R)-1-(1-isopropylpiperidin-4-yl)pyrrolidin-3-yl)-6,7-dihydro-5H-pyrrolo[2,1-c][1,2,4]triazol-6-yl)phenol], which IC50 is on record?
A: Its IC50 is 0.00501 µM.

Q: With `Oc1ccc(Cl)c(Cl)c1[C@@H]1Cc2nnc([C@@H]3CCN(C4CCOCC4)C3)n2C1` [Example 83, 3,4-Dichloro-2-((S)-3-((R)-1-(tetrahydro-2H-pyran-4-yl)pyrrolidin-3-yl)-6,7-dihydro-5H-pyrrolo[2,1-c][1,2,4]triazol-6-yl)phenol] as the compound, how does the IC50 read?
A: Its IC50 is 0.00399 µM.

Q: With `Cc1cc(-c2nnc3n2C[C@H](c2c(O)ccc(Cl)c2Cl)C3)ccn1` [Example 84, (S)-3,4-Dichloro-2-(3-(2-methylpyridin-4-yl)-6,7-dihydro-5H-pyrrolo[2,1-c][1,2,4]triazol-6-yl)phenol] as the compound, how does the IC50 read?
A: The IC50 was 0.00804 µM.

From patent US20260224536A1, “ARYL HETEROCYCLIC KV1.3 INHIBITOR, PREPARATION METHOD THEREFOR, AND USE THEREOF” (SHANGHAI SHENSHI WISE TECHNOLOGY CO., LTD., priority 2022, published 2026)
